These results are taken from patent EP4755886A1 (Chengdu Chipscreen Pharmaceutical Ltd., priority 2023, dated 2025).

Usually AUC(0-t) stands for exposure summed from dosing to a finite time, without extrapolation to infinity. Read a low AUC(0-t) as less exposure. For orientation: Cmax means the maximum level reached in the sampled fluid or tissue.

For one data set, the system named is wild-type HCT-116 cells. The data set can be described thus: Cell proliferation (MTS), wild-type HCT-116. It counts as cell-based. The settings on record: Homo sapiens, 240 h; wild-type HCT-116, 10 days with compound, MTS reading; read-out: IC50 HCT116 WT. In a few lines: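 Wild-type HCT-116 cells were seeded at 100 cells/well in McCoy's 5A/10% FBS. From day 1 they were treated with compound in 3-fold dilutions (initial 20 µM, 8 points) for 10 days at 37° C. Proliferation was read by MTS on day 11, and IC50 was obtained from a four-parameter logistic fit.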

The test system of another data set is MTAP^-/- HCT-116 cells. Kind of data set: Cell proliferation (MTS), MTAP-/- HCT-116. Format: cell-based, human. The settings on record: for Selectivity: HCT116 WT IC50 relative to HCT116 MTAP-/- IC50; for IC50: Homo sapiens, 240 h, MTAP-/- HCT-116, 10 days with compound, MTS reading, read-out: IC50 HCT116 MTAP-/-. The procedure, abridged: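 MTAP-/- (CRISPR/Cas9 biallelic knockout) or wild-type HCT-116 cells seeded at 100 cells/well, treated next day with 8-point 3-fold dilutions (top 20 µM) for 10 days at 37 °C, 5% CO2. Viability read by MTS; IC50 from four-parameter logistic fit of inhibition rate vs log concentration.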

A short description of the next data set: PK experiment in mice. The settings on record: female, BALB/c, mouse, plasma, po, 10 mg/kg.

Procedure for PK experiment in mice: Experimental materials: the experimental animals were healthy adult female BALB/c mice (provided by Sichuan Vital River Laboratory Animal Technology Co., Ltd.).
Administration mode and sample collection in mice: BALB/c female mice received oral intragastrical administration (10 mg/kg, vehicle: 0.5% methylcellulose/0.2% Tween 80), and 60 µL of whole blood from the venous plexus of the fundus of the mice at different time points was collected at 0.25 h, 0.5 h, 1 h, 2 h, 4 h, 6 h, 8 h, and 24 h after administration and centrifuged at 4000 rpm for 6 min to collect plasma.
10 µL of mouse plasma sample was added to 190 µL of acetonitrile solution containing an internal standard to precipitate protein. The mixture was vortexed for 10 min and centrifuged at 4000 rpm for 10 min. The supernatant was collected and added to a 96-well plate. The samples were analyzed by LC-MS/MS. The drug concentrations in the plasma of mice at different time points after intragastric administration of the example compounds were measured by an LC-MS/MS method, and the related pharmacokinetic parameters were calculated, such that the pharmacokinetic behavior of the compounds in the mice was studied, and the pharmacokinetic characteristics were evaluated.

On to `CN(C(=O)c1ccc2nc(N)c3cnn(C)c3c2c1)C1COc2cc(C#Cc3cnn(C(F)F)c3)ccc21` (stereo not drawn) [Compound 30, 4-amino-N-(6-((1-(difluoromethyl)-1H-pyrazol-4-yl)ethynyl)-2,3-dihydrobenzofuran-3-yl)-N,1-dimethyl-1H-pyrazolo[4,3-c]quinoline-8-carboxamide], for which the IC50 in the data set on wild-type HCT-116 cells is 1750 nM. In the data set with MTAP^-/- HCT-116 cells, the Selectivity stood at 201 and the IC50 was 8.7 nM. Besides, in “PK experiment in mice”, the exposure AUC(0-t) was determined as 12600 ± 1360 ng·h/mL and the highest level (Cmax) was 984 ± 123 ng/mL.
The like results for `CN(C(=O)c1cc2c3c(c(N)nc2cc1Cl)COC3)[C@@H]1COc2cc(C#Cc3cccnc3F)ccc21` [Compound 61A, (S)-4-amino-7-chloro-N-(6-((2-fluoropyridin-3-yl)ethynyl)-2,3-dihydrobenzofuran-3-yl)-N-methyl-1,3-dihydrofuro[3,4-c]quinoline-8-carboxamide] were, in that order, 640 nM, 91, 7 nM, 22200 ± 2710 ng·h/mL and 2080 ± 299 ng/mL.
The like results for `CN(C(=O)c1cc2c3c(c(N)nc2cc1Cl)COC3)[C@@H]1COc2cc(C#Cc3cnc4n3CCCC4)ccc21` [Compound 74A, (S)-4-amino-7-chloro-N-methyl-N-(6-((5,6,7,8-tetrahydroimidazo[1,2-a]pyridin-3-yl)ethynyl)-2,3-dihydrobenzofuran-3-yl)-1,3-dihydrofuro [3,4-c] quinoline-8-carb oxamide] were, in that order, 472 nM, 175, 2.7 nM, 14500 ± 1760 ng·h/mL and 2810 ± 780 ng/mL.
The like results for `CN(C(=O)c1cc2c3c(c(N)nc2cc1Cl)COC3)[C@@H]1COc2cc(C#Cc3cnc4n3CCC4)ccc21` [Compound 75A, (S)-4-amino-7-chloro-N-(6-((6,7-dihydro-5H-pyrrolo[1,2-a]imidazol-3-yl)ethynyl) -2,3-dihydrobenzofuran-3-yl)-N-methyl-1,3-dihydrofuro[3,4-c]quinoline-8-carbo xamide] were, in that order, 424 nM, 106, 4 nM, 27000 ± 4260 ng·h/mL and 5010 ± 846 ng/mL.
On to `CN(C(=O)c1cc2c3c(c(N)nc2cc1Cl)COC3)[C@@H]1COc2cc(C#Cc3cnc4cnn(C)c4c3)ccc21` [Compound 76A, (S)-4-amino-7-chloro-N-methyl-N-(6-((1-methyl-1H-pyrazolo[4,3-b]pyridin-6-yl)ethynyl)-2,3-dihydrobenzofuran-3-yl)-1,3-dihydrofuro[3,4-c]quinoline-8-carboxamide], for which the IC50 turned out to be 167 nM in the data set with wild-type HCT-116 cells and 3 nM in the data set on MTAP^-/- HCT-116 cells. Besides, the Selectivity in the data set on MTAP^-/- HCT-116 cells is listed as 56.
The matching figures for `CN(C(=O)c1cc2c3c(c(N)nc2cc1Cl)COC3)[C@@H]1COc2cc(C#Cc3ccnn3C)ccc21` [Compound 78A, (S)-4-amino-7-chloro-N-methyl-N-(6-((1-methyl-1H-pyrazol-5-yl)ethynyl)-2,3-dihydrobenzofuran-3-yl)-1,3-dihydrofuro[3,4-c]quinoline-8-carboxamide]: 512 nM, 3.9 nM and 131.
For the molecule `[2H]C([2H])([2H])N(C(=O)c1cc2c(cc1F)nc(N)c1cnn(C)c12)[C@@H]1COc2cc(C#Cc3cnn(C)c3)ccc21` [Compound 79A, (S)-4-amino-7-fluoro-1-methyl-N-(methyl-D3)-N-(6-((1-methyl-1H-pyrazol-4-yl)ethynyl)-2,3-dihydrobenzofuran-3-yl)-1H-pyrazolo[4,3-c]quinoline-8-carboxamide], the IC50 in the data set on wild-type HCT-116 cells is 304 nM. Besides, in the data set on MTAP^-/- HCT-116 cells, the Selectivity is given as 152 and the IC50 was 2 nM.
The like results for `CN(C(=O)c1cc2c3c(c(N)nc2cc1F)COC3)[C@@H]1COc2cc(C#Cc3cnc4n3CCCC4)ccc21` [Compound 80A, (S)-4-amino-7-fluoro-N-methyl-N-(6-((5,6,7,8-tetrahydroimidazo[1,2-a]pyridin-3-yl)ethynyl)-2,3-dihydrobenzofuran-3-yl)-1,3-dihydrofuro [3,4-c] quinoline-8-carbo xamide] were, in that order, 1510 nM, 251 and 6 nM.
The matching figures for `Cc1cn(C)nc1C#Cc1ccc2c(c1)OC[C@H]2N(C)C(=O)c1cc2c(cc1Cl)nc(N)c1cnn(C)c12` [Compound 81A, (S)-4-amino-7-chloro-N-(6-((1,4-dimethyl-1H-pyrazol-3-yl)ethynyl)-2,3-dihydrobenzofuran-3-yl)-N,1-dimethyl-1H-pyrazolo[4,3-c]quinoline-8-carboxamide]: 122 nM, 45 and 2.7 nM.
The like results for `Cc1cc2nc(N)c3cnn(C)c3c2cc1C(=O)N(C)[C@@H]1COc2cc(C#Cc3cnn(C(F)F)c3)ccc21` [Compound 83A] were, in that order, 62 nM, 62 and 1 nM.
Take `CN(C(=O)c1cc2c(cc1F)nc(N)c1cnn(C)c12)[C@@H]1COc2cc(C#Cc3cnc4n3CCC4)ccc21` [Compound 84A, (S)-4-amino-N-(6-((6,7-dihydro-5H-pyrrolo[1,2-a]imidazol-3-yl)ethynyl)-2,3-dihydrobenzofuran-3-yl)-7-fluoro-N,1-dimethyl-1H-pyrazolo[4,3-c]quinoline-8-carbo xamide]: the IC50 in the data set on wild-type HCT-116 cells stood at 143 nM. In the data set on MTAP^-/- HCT-116 cells, the Selectivity came out at 55 and the IC50 was 2.6 nM.
The like results for `CN(C(=O)c1cc2c(cc1F)nc(N)c1cnn(C)c12)C1COCc2cc(C#Cc3cnn(C4CC4)c3)ccc21` (stereo not drawn) [Compound 85, 4-amino-N-(7-((1-cyclopropyl-1H-pyrazol-4-yl)ethynyl)isochroman-4-yl)-7-fluoro -N,1-dimethyl-1H-pyrazolo[4,3-c]quinoline-8-carboxamide] were, in that order, 165 nM, 55 and 3 nM.
The like results for `CN(C(=O)c1cc2c3c(c(N)nc2cc1Cl)COC3)C1COCc2cc(C#Cc3cnn(C4CC4)c3)ccc21` (stereo not drawn) [Compound 87, 4-amino-7-chloro-N-(7-((1-cyclopropyl-1H-pyrazol-4-yl)ethynyl)isochroman-4-yl) -N-methyl-1,3-dihydrofuro[3,4-c]quinoline-8-carboxamide] were, in that order, 504 nM, 56 and 9 nM.
The matching figures for `CN(C(=O)c1cc2c3c(c(N)nc2cc1Cl)COC3)[C@@H]1COc2cc(C#Cc3cnn4c3CCC4)ccc21` [Compound 88A, (S)-4-amino-7-chloro-N-(6-((5,6-dihydro-4H-pyrrolo[1,2-b]pyrazol-3-yl)ethynyl)-2,3-dihydrobenzofuran-3-yl)-N-methyl-1,3-dihydrofuro[3,4-c]quinoline-8-carbox amide]: 777 nM, 173 and 4.5 nM.
On to `CN(C(=O)c1cc2c(cc1F)nc(N)c1cnn(C)c12)[C@@H]1COc2cc(C#Cc3cnn(C4CCC4)c3)ccc21` [Compound 89A, (S)-4-amino-N-(6-((1-cyclobutyl-1H-pyrazol-4-yl)ethynyl)-2,3-dihydrobenzofuran-3-yl)-7-fluoro-N,1-dimethyl-1H-pyrazolo [4,3-c] quinoline-8-carboxamide], for which the IC50 with wild-type HCT-116 cells came to 263 nM. Moreover, in the data set on MTAP^-/- HCT-116 cells, the Selectivity was found to be 88 and the IC50 stood at 3 nM.
The matching figures for `CN(C(=O)c1cc2c3c(c(N)nc2cc1Cl)COC3)[C@@H]1COc2cc(C#Cc3cnn(C4CCC4)c3)ccc21` [Compound 90A, (S)-4-amino-7-chloro-N-(6-((1-cyclobutyl-1H-pyrazol-4-yl)ethynyl)-2,3-dihydrobenzofuran-3-yl)-N-methyl-1,3-dihydrofuro[3,4-c]quinoline-8-carboxamide]: 1180 nM, 98 and 12 nM.
Take `CN(C(=O)c1ccc2nc(N)c3cnn(C)c3c2c1)C1COc2cc(C3CC3)ccc21` (stereo not drawn) [Reference Example 3, reference compound]: in “PK experiment in mice”, the area under the curve AUC(0-t) is 5130 ± 2920 ng·h/mL and the maximum concentration (Cmax) came to 741 ± 601 ng/mL.
Consider `CN(C(=O)c1cc2c3c(c(N)nc2cc1Cl)COC3)[C@@H]1COc2cc(Br)ccc21` [Reference Example 4, reference compound], for which, in “PK experiment in mice”, the AUC(0-t) was 3270 ± 588 ng·h/mL and the highest level (Cmax) was 649 ± 45 ng/mL.
